The values that follow come from patent publication US12497610B2, “Functional genomics using CRISPR-CAS systems for saturating mutagenesis of non-coding elements, compositions, methods, libraries and applications thereof” (THE BROAD INSTITUTE, INC., priority 2015, dated 2025).

Data set [1] relates to CUL3. The data set can be described thus: ddPCR quantification of CUL3 expression in A375 cells transduced with individual sgRNAs. The class given is cell-based, human. The following applies: A375, relative to non-targeting sgRNAs; result in words. An excerpt:
Array Validation of Primary Screen Hits
For individual (array) validation of noncoding sgRNAs, Applicants first identified sgRNAs enriched in the top 5% of the library as given by the normalized log 2(Vemu/DMSO) read ratio. In order to have high confidence in these sgRNAs, Applicants used the minimum of the two infection replicates for the normalized log2 (Vemu/DMSO) read ratio. […] This ensures that putative noncoding functional elements were supported by the presence of at least 2 enriched sgRNAs. From this group, Applicants picked 25 sgRNAs distributed across different genomic regions for individual validation (see table S2 for a list of sgRNA sequences). Applicants also included 3 exon-targeting and 3 non-targeting sgRNAs to serve as positive and negative controls, respectively.
For each sgRNA, standard desalted short oligonucleotides (Integrated DNA Technologies) were annealed, phosphorylated and cloned into a lentiviral vector (lentiCRISPRv2, Addgene 52961) that contained Cas9 and an sgRNA cassette. For each sgRNA, A375 cells were transduced with lentiviral supernatants. After 24 hours, media was replaced with R10 with 1 ug/mL of puromycin. Viral volumes were titered such that 20-40% of cells survived after puromycin selection. After selection and expansion for 7 days in puromycin, cell were plated for DNA/RNA extraction, vemurafenib resistance, or ChIP assays.
RNA Extraction and ddPCR Quantification of CUL3 Expression
After 7 days of puromycin selection, A375 cells transduced with individual lentiCRISPRv2 sgRNAs were plated in 3 replicate wells (2×10^3 cells/well) in 96-well plates. After 4 days (70-90% confluent), RNA was extracted using a homemade version of a rapid lysis kit for quantitative PCR (similar to commercial “Cells-to-Ct”-style kits). This procedure (detailed below) enables rapid RNA extraction and qPCR/ddPCR readout from 96-well plates with minimal hands-on time.
Cells were first washed in 100 ul of chilled phosphate-buffered saline (PBS). Then, cells were incubated at room temperature for 8 minutes in 50 ul of Complete Lysis Buffer. The Complete Lysis Buffer consists of the Base Lysis Buffer with freshly added 100 ug/ml Proteinase K (Sigma P2308) and 300 U/mL DNase I (Sigma D2821). When adding DNase I, it is important to not vortex but mix only by gentle pipetting. The Base Lysis Buffer is made in RNAse-free water (ThermoFisher Scientific 10977015) with 10 mM Tris pH8 (Ambion AM9856), 0.5 mM MgCl2 (Sigma M1028), 0.44 mM CaCl2 (Sigma 21115), 10 uM DTT (Sigma 43816), 0.1% Triton X-114 (Calbiochem 648468), and 1.73 mN HCl (Sigma 318965) and should have a final pH of 7.8. The Base Lysis Buffer is stable at 4° C. for up to 6 months.
After the 8-minute incubation in Complete Lysis Buffer, 30 ul of the cell lysis was added to new PCR plates containing 3 ul of STOP buffer in each well to stop the lysis reaction. The STOP buffer is made in RNAse-free water with 1 mM Proteinase K inhibitor AAPF N-(Methoxysuccinyl)-Ala-Ala-Pro-Phe-chloromethyl ketone (SEQ ID NO: 174) (Millipore 539470), 90 mM EDTA (ThermoFisher Scientific 15575020), and 113 uM DTT (Sigma 43816). The final pH of the STOP buffer should be 8, adjusted appropriately with HCl and KOH. The STOP buffer is stable for up to 6 months at 20° C. The lysis reaction was mixed with the STOP buffer by pipetting up and down 5 times. Applicants then incubated the lysis and STOP buffer for at least 2 minutes but not more than 20 minutes. (Extra stopped lysis can be stored at −80° C. for up to 5 months.)
Applicants transferred 5 ul of the stopped lysis to new PCR plates with 20 ul of RT master mix. The RT master mix is from the RevertAid Reverse Transcriptase kit (ThermoFisher Scientific K1691) and is as described in the manufacturer's protocol but with an added oligo-dT primer. […]

Data set [2] relates to YY1. The data set can be described thus: ChIP-ddPCR for YY1. It is filed as cell-based, human. The following applies: ChIP-ddPCR around cut site vs non-targeting sgRNA. How it is done: Chromatin Immunoprecipitation (ChIP) for Histone Modifications and Transcription Factors
After 7 days of puromycin selection, A375 cells transduced with individual lentiCRISPRv2 sgRNAs were plated in T-225 flasks and grown to 70-90% confluence (6 days). At this point, chromatin fixation was initiated by adding formaldehyde directly to the growth media (final concentration 1%) and incubating at 37° C. for 10 minutes. The entire two-day ChIP procedure was performed using the Magna ChIP HiSens Chromatin Immunoprecipitation Kit (Millipore 1710460), as specified in the manufacturer's protocol. […]
Using BatchPrimer3, Applicants designed primers centered on the sgRNA target site with a target amplicon size of 80-120 bp (see table S4 for ChIP-ddPCR primers). Droplet digital PCR (ddPCR) reactions using EvaGreen (BioRad 1864034) were used to quantify changes between input, histone/TF ChIP, and IgG ChIP samples for A375 cells transduced with specific sgRNAs and untransduced A375 cells. […] Applicants calculated the percent change in ChIP signal after genome editing by normalizing each ChIP sample to its corresponding input sample and then comparing the normalized ChIP between A375s transduced with specific sgRNAs and untransduced (control) A375 cells.

For data set [3], the system named is human BCL11A erythroid enhancer. Briefly: Tiled pooled CRISPR-Cas9 screen for in situ functional mapping of the human BCL11A erythroid enhancer (HbF-high/HbF-low sort, sgRNA deep sequencing). The following applies: for Enrichment Score: HbF enrichment, human library NGG and NGG RC sgRNAs filtered for enrichment score >0.259; for Dropout Score: human library sgRNAs that produced HbF enrichment over 0.259. It is filed as cell-based. A digest of the protocol: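 HUDEP-2 cells stably expressing Cas9 transduced at low multiplicity with tiled sgRNA library covering +55/+58/+62 DHS, selected with blasticidin/puromycin, expanded one week then differentiated one week. Top and bottom 10% HbF-stained cells FACS-sorted; sgRNA representation determined by deep sequencing of genomic DNA.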

As for “5′-UTR sg1: validation sgRNA AGGAGGAGGAGGACGACGTT, SEQ ID NO 457, 5′ UTR (expressed or natural sequence)”, in data set [1], the CUL3 expression entry is recorded as “significantly decrease”. Also, in data set [2], the “decrease of YY1 binding” value is recorded as 26%.

In the case of “BCL_01829_H_D62 (guide TGTGGGGTGGCTGTTTAAAGNGGRC; listed as DNA, chemistry not given here)”, in data set [3], the “Enrichment Score” value is recorded as 0.496 and the “Dropout Score” value was −0.1469.

Regarding “BCL_00088_H_D55 (guide GCATCATCCTGGTACCAGGANGG; listed as DNA, chemistry not given here)”, in data set [3], the “Enrichment Score” value was 0.4386 and the “Dropout Score” value is −0.3713.

Regarding “BCL_01497_H_D55 (guide AAGAGGCCACTGAGTCCTTTNGGRC; listed as DNA, chemistry not given here)”, in data set [3], the “Enrichment Score” value turned out to be 0.43 and the “Dropout Score” value stood at 0.4562.

Turning to “BCL_01637_H_D58 (guide CCATCGGTGGCCGTTTGCCCNGGRC; listed as DNA, chemistry not given here)”, in data set [3], the “Enrichment Score” value was 0.669 and the “Dropout Score” value was −0.5016.

Turning to “BCL_00064_H_D55 (guide TGCCAACAGTGATAACCAGCNGG; listed as DNA, chemistry not given here)”, in data set [3], the “Enrichment Score” value was 0.5108 and the “Dropout Score” value is −0.3581.

Regarding “BCL_01461_H_D55 (guide GCCCTGCTGGTTATCACTGTNGGRC; listed as DNA, chemistry not given here)”, in data set [3], the “Enrichment Score” value is listed as 0.5924 and the “Dropout Score” value is reported as −0.5115.

As for “BCL_00160_H_D58 (guide TCAGGGGGAGGCAAGTCAGTNGG; listed as DNA, chemistry not given here)”, in data set [3], the “Enrichment Score” value is 0.3294 and the “Dropout Score” value is recorded as −0.318.

Turning to “BCL_01989_H_exon2 (guide CTGCTATGTGTTCCTGTTTGNGGRC; listed as DNA, chemistry not given here)”, in data set [3], the “Enrichment Score” value came to 0.6201 and the “Dropout Score” value is 0.0332.

With “BCL_01831_H_D62 (guide GGGTGGCTGTTTAAAGAGGGNGGRC; listed as DNA, chemistry not given here)”, in data set [3], the “Enrichment Score” value came out at 0.4104 and the “Dropout Score” value was −0.1486.

As to “BCL_01450_H_D55 (guide TGCTTGGTCGGCACTGATAGNGGRC; listed as DNA, chemistry not given here)”, in data set [3], the “Enrichment Score” value is 1.578 and the “Dropout Score” value is on record as −0.3195.

“BCL_01623_H_D58 (guide AAGGGTTTGGCCTCTGATTANGGRC; listed as DNA, chemistry not given here)”: in data set [3], the “Enrichment Score” value was 1.285 and the “Dropout Score” value is on record as −0.2669.

In the case of “BCL_00251_H_exon2 (guide GGCCCGTTGGGAGCTCCAGANGG; listed as DNA, chemistry not given here)”, in data set [3], the “Enrichment Score” value came out at 1.911 and the “Dropout Score” value is given as −1.236.

As for “BCL_01801_H_D62 (guide CCCCGGCCTCCCAAAGTGCTNGGRC; listed as DNA, chemistry not given here)”, in data set [3], the “Enrichment Score” value was found to be 0.6113 and the “Dropout Score” value is −8.0566.

Regarding “BCL_01631_H_D58 (guide ATTAGGGTGGGGGCGTGGGTNGGRC; listed as DNA, chemistry not given here)”, in data set [3], the “Enrichment Score” value is 0.4098 and the “Dropout Score” value was −0.1615.

On to “BCL_00092_H_D55 (guide TTCCCTTCCTAGAATTGGCCNGG; listed as DNA, chemistry not given here)”, for which, in data set [3], the “Enrichment Score” value stood at 0.4035 and the “Dropout Score” value is −0.4369.

For “BCL_01483_H_D55 (guide GTCATCCTCGGCCAATGAAGNGGRC; listed as DNA, chemistry not given here)”, in data set [3], the “Enrichment Score” value is recorded as 0.4318 and the “Dropout Score” value is on record as −0.4056.

On to “BCL_00057_H_D55 (guide GGAAGGGCCTCTATGTAGACNGG; listed as DNA, chemistry not given here)”, for which, in data set [3], the “Enrichment Score” value is listed as 0.46 and the “Dropout Score” value is −0.4451.

In the case of “BCL_00240_H_D62 (guide TGTAATCTCAGCTACTCGGGNGG; listed as DNA, chemistry not given here)”, in data set [3], the “Enrichment Score” value stood at 0.79 and the “Dropout Score” value is reported as −8.691.

As for “BCL_00082_H_D55 (guide TCACAGGGTGTGCCCTGAGANGG; listed as DNA, chemistry not given here)”, in data set [3], the “Enrichment Score” value is reported as 0.4174 and the “Dropout Score” value is −1.087.
